The nature of data set [1]: In vivo pharmacokinetic analysis after TA delivery. Set-up: species or system Sprague Dawley rats. To be noted: SD rats; for half-life: male, Sprague Dawley, rat. The method, then:
Six-week-old male Sprague Dawley rats (SD rats) were purchased from Young Bio Inc. (Seongnam, Korea) and allowed seven days for acclimation. Three groups of SD rats were used for the pharmacokinetic study. All the dorsal regions of the SD rats were shaved for application of the TA-DMN patches. Group 1 was administered a subcutaneous injection of a formulation containing 60.6 μg of TA into the central part of the back using a 27 G hypodermic needle (Becton Dickinson, Franklin Lakes, NJ, USA), and served as the positive control. Group 2 received one TA-DMN patch containing 61.4 ± 1.3 µg of TA. Group 3 received two TA-DMN patches containing 122.8 ± 2.6 µg of TA. A home-made shooting device was used to apply the TA-DMN patches on the backs of the SD rats, and a dressing (Tegaderm; 3M Health Care, St. Paul, MN, USA) was used to cover the patches. In addition, a self-adherent bandage wrap (Coban; 3M Health Care, St. Paul, MN, USA) was used to secure the patches.
At 0, 0.25, 0.5, 0.75, 1, 2, 3.5, 4, 5, 6, and 24 h after subcutaneous administration of TA in group 1, 100 μL of blood was taken into a Microvette (SARSTEDT; Nümbrecht, Germany) from the saphenous vein, which was exposed after a minor incision of the tail by a surgical blade. Blood samples were collected in the same manner at 0, 0.5, 1, 2, 3.5, 4, 5, 6, and 24 h after TA-DMN patch application in group 2, and at 0, 0.5, 1, 1.5, 3, 4, 5, 6, and 24 h after TA-DMN patch application in group 3. The collected blood was left at room temperature for 30 min and centrifuged using a microcentrifuge (Hanil, Dajeon, Korea) at 1000× g for 10 min to separate the plasma. All separated plasma samples were transferred to 1.5-mL Eppendorf tubes and stored at −70 °C. TA concentrations in rat plasma were determined via enzyme-linked immunosorbent assay (ELISA) using a TA pharmacokinetics ELISA kit (SB-07-043; Somru Bioscience, Charlottetown, PE, Canada) and a microplate reader (Perkin Elmer, Waltham, MA, USA). Based on the determined TA concentrations in rat plasma, the areas under the concentration curve (AUC) were computed using the trapezoid area calculation method, and BA was evaluated to analyze the pharmacokinetic profiles.

The nature of data set [2]: TA activity after drying in CL-mimic conditions (RP-HPLC). The data set is classed as physicochemical. To be noted: droplets dried at 4 °C under vacuum (CL-mimic), reconstituted in PBS, RP-HPLC C18, UV, mean ± SD, n = 15. The method, then:
TA activity was assessed via reverse-phase high-performance liquid chromatography (RP-HPLC) under CL-mimic conditions, in which TA undergoes a drying process from droplets of matric polymer with TA. TA polymer solutions were dispensed as droplets on a polyurethane film (SLA, Gumi, Korea) using a robotic dispenser (ML-5000X; Musashi Engineering, Inc., Tokyo, Japan) and dried at 4 °C under vacuum to mimic the conditions of the CL. Dried droplets were then dissolved in phosphate-buffered saline (PBS; Life Technologies, Carlsbad, CA, USA) for reconstitution and analyzed via RP-HPLC using a separation module (Waters e2695; Waters Corp., Milford, MA, USA) and a dual λ absorbance detector (Waters 2487′ Waters Corp., Milford, MA, USA). A C18 column (COSMOSIL; 5 μm, 150 × 4.6 mm) was used for HPLC. Mobile phase A was prepared as 10% acetonitrile (Sigma-Aldrich, St. Louis, MO, USA) and 90% 0.2 M sodium sulfate (Sigma-Aldrich, St. Louis, MO, USA) and phase B was prepared as 50% acetonitrile and 50% of 0.2 M sodium sulfate with a flow rate of 1.3 mL/min and detection wavelength of […].

Structures are written as SMILES. Values joined by “and” are separate entries in the source; they are usually repeats but may differ in a detail not shown here. Equal values may be shown once. Read-outs that look alike come from different tables or passages of the source.

With `CC[C@H](C)[C@H](NC(=O)[C@H](CCC(=O)O)NC(=O)[C@H](CO)NC(=O)[C@@H](NC(=O)[C@@H](N)CO)C(C)C)C(=O)N[C@@H](CCC(N)=O)C(=O)N[C@@H](CC(C)C)C(=O)N[C@@H](CCSC)C(=O)N[C@@H](Cc1cnc[nH]1)C(=O)N[C@@H](CC(N)=O)C(=O)N[C@@H](CC(C)C)C(=O)NCC(=O)N[C@@H](CCCCN)C(=O)N[C@@H](Cc1cnc[nH]1)C(=O)N[C@@H](CC(C)C)C(=O)N[C@@H](CC(N)=O)C(=O)N[C@@H](CO)C(=O)N[C@@H](CCSC)C(=O)N[C@@H](CCC(=O)O)C(=O)N[C@@H](CCCN=C(N)N)C(=O)N[C@H](C(=O)N[C@@H](CCC(=O)O)C(=O)N[C@@H](Cc1c[nH]c2ccccc12)C(=O)N[C@@H](CC(C)C)C(=O)N[C@@H](CCCN=C(N)N)C(=O)N[C@@H](CCCCN)C(=O)N[C@@H](CCCCN)C(=O)N[C@@H](CC(C)C)C(=O)N[C@@H](CCC(N)=O)C(=O)N[C@@H](CC(=O)O)C(=O)N[C@H](C(=O)N[C@@H](Cc1cnc[nH]1)C(=O)N[C@@H](CC(N)=O)C(=O)N[C@@H](Cc1ccccc1)C(=O)O)C(C)C)C(C)C` [TA, teriparatide acetate], the Tmax in data set [1] (Group 1: subcutaneous injection, 60.6 μg TA, plasma ELISA, n = 3) stood at 18 min. Further, the BA in data set [1] (Group 1: subcutaneous injection, 60.6 μg TA, positive control (reference), n = 3) was 100% and 100 ± 10.5%. The half-life is roughly 48 min in data set [1] (plasma, after all three TA administration methods (SC, one patch, two patches), read-out: half-life t½ of TA in plasma (converted)) and 48 min in data set [1] (sc, Group 1: subcutaneous injection, 60.6 μg TA, plasma ELISA, n = 3, read-out: t1/2 (converted)). The results for the “TA activity after drying” value in data set [2] (TA polymer solution (HA) with 10% trehalose) and in data set [2] (TA polymer solution (HA) without trehalose) were 75.4 ± 8.3% and 59.0 ± 3.6%, respectively.

For orientation: Tmax means the time at which the peak concentration occurs.

These data come from publication PMC9571303, “Development of Clinical Weekly-Dose Teriparatide Acetate Encapsulated Dissolving Microneedle Patch for Efficient Treatment of Osteoporosis” (Polymers, 2022).
